The source of these data is article PMC12234328, “A naphthalimide derivative exerts potent antiplatelet and antithrombotic activities without a bleeding tendency” (Frontiers in Pharmacology, 2025).

By IC50 is commonly meant the midpoint of a concentration-inhibition curve. For orientation: Kd means a measure of binding affinity in units of concentration.

In data set [1] the test system is thrombus formation in mesenteric venules. As to the kind of experiment: Fluorescein sodium-mediated thrombus formation in mesenteric microvessels of mice. The class given is in vivo. Conditions: 20 mg/kg i.v., positive control, n = 6, mean ± SEM. As to the method: Male ICR mice (weighing 20–25 g and aged 5–6 weeks) were purchased from BioLasco (Taipei, Taiwan). The animal use protocol for this project was approved by the Affidavit of Approval of Animal Use Protocol–Taipei Medical University (LAC-2020–0074). All animal experiments were conducted in accordance with the Guide for the Care and Use of Laboratory Animals, Eighth Edition (2011).
The mice were anesthetized with an oxygen–air mixture containing 3% isoflurane at a gas flow rate of 1.5–2 L/min. A bolus dose (bolus volume: 20 μL) of compound 6 (0.3 mg/kg, 0.6 mg/kg, or 1.2 mg/kg), DMSO (solvent control; 1.1 g/kg), or aspirin (20 mg/kg; positive control) was intravenously administered through the tail vein before the administering sodium fluorescein (15 mg/kg). The small intestinal segments were placed on a transparent culture dish, and the mesenteric vessels were observed under a microscope. Venules (20–30 μm) were selected and irradiated with light (wavelength <520 nm) to induce endothelial damage, causing thrombus formation and subsequent vessel occlusion. The time required to occlude a microvessel was recorded ([Lin et al., 2013]). A formula for dose translation based on the […] was used to calculate the appropriate dose for use in the mice ([Reagan-Shaw et al., 2008]). [Reagan-Shaw et al. (2008)] reported that the animal dose should not be extrapolated to a human equivalent dose (HED) by a simple conversion based on body weight. […] The formula for dose translation based on BSA is as follows: HED (mg/kg) = Animal dose (mg/kg) multiply by Animal Km/Human Km. Mouse Km is 3 and Human Km is 37.
FIGURE 3 Effects of compound 6 on thrombosis and hemostasis in mice. Mice were treated with compound 6 (0.3, 0.6, or 1.2 mg/kg), DMSO (solvent control), or aspirin (20 mg/kg; positive control) via intravenous route for 10 min. (A) The microthrombus formation (arrows) in mesenteric venules. Scale bar = 30 μm. […] Each point on the plot indicates a mouse (n = 6). Data (A,B) are presented as means ± SEM (n = 6). *p < 0.05 and ***p < 0.001 compared with the DMSO group.

Data set [2] shares this test system. Also noted: method as in Shih et al., 2021. Conditions: mice, ref Shih et al., 2021, cited from earlier work.
Data set [3] deals with human platelet suspensions stimulated with collagen. Further details: method as in Shih et al., 2021. Conditions: human platelets; ref Shih et al., 2021; read-out: IC50, collagen-induced platelet aggregation; cited from earlier work.
In data set [4] the test system is tail bleeding (hemostasis). Also noted: method as in Shih et al., 2021. Conditions: ref Shih et al., 2021; cited from earlier work.
In data set [5] the test system is human platelet suspensions stimulated with U46619. Further details: method as in Shih et al., 2021. Conditions: high concentrations; ref Shih et al., 2021; cited from earlier work.
For data set [6], the target named is T1, recombinant human GPVI (Homo sapiens, UniProt Q9HCN6).
T1 sequence (Q9HCN6 21-267 limits assumed): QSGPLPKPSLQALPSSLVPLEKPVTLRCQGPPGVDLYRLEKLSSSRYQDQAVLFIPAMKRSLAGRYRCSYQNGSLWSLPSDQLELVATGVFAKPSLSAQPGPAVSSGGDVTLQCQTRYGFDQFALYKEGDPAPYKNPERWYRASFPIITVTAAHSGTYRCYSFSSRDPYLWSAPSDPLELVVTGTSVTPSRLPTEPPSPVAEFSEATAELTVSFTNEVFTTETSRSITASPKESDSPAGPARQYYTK
As to the kind of experiment: Surface plasmon resonance binding assay (OpenSPR). The following applies: his-tagged recombinant GPVI on NTA chip, compound at 0.1 and 1 μM; read-out: KD (equilibrium dissociation constant). As to the method: Surface plasmon resonance (SPR) analysis was performed using an OpenSPR instrument (Nicoya, Kitchener, Canada). A nitrilotriacetic acid (NTA) sensor chip was installed in the OpenSPR instrument. Running buffer (phosphate-buffered saline) was pumped at the maximum flow rate, and 80% isopropanol was injected to remove any bubbles. Subsequently, 200 μL of a 200 mM imidazole solution was injected to prime the sensor surface. After rinsing the chip with running buffer, 200 μL of a 40 mM NiCl2 solution was used to activate the NTA chip. After 5 min of interaction time, his-tagged recombinant GPVI proteins were bound to the NTA chip by perfusing the GPVI protein solution at a flow rate of 20 μL/min. Solutions of compound 5 or compound 6 (0.1 and 1 μM) were then injected. The equilibrium dissociation constant (KD) was determined using the OpenSPR system (Nicoya).
An SPR binding assay was performed. First, recombinant human GPVI was coated on the NTA sensor chip. Solutions of compound 5 and compound 6 (0.1 and 1 μM) were then perfused on the chip, and the KD was determined using the OpenSPR system (Nicoya Lifesciences).
FIGURE 7 Direct binding of compound 6 on GPVI. […] Equilibrium dissociation constant (KD) were determined using the OpenSPR system. […]
A general note: In SPR one partner is held on a chip, and binding of the other changes the refractive index at the surface.

Data set [7] deals with human platelet suspensions stimulated with thrombin. Further details: method as in Shih et al., 2021. The following applies: high concentrations; ref Shih et al., 2021; cited from earlier work.

Read-outs that look alike come from different tables or passages of the source.

The compound `CC(=O)Oc1ccccc1C(=O)O` [aspirin, reference compound] had an Occlusion time in data set [1] of 492.2 ± 31.9 s.

For the compound `CN(C)CCN1C(=O)c2cccc3c(NCCNC(=O)c4ccccn4)ccc(c23)C1=O` [compound 5], the values for the Thrombus formation entry in data set [2] (1.2 mg/kg) and in data set [2] (2.3 mg/kg) were “not” and “inhibits thrombus formation”, respectively. In addition, the IC50 in data set [3] is 6.5 µM. Also, the Bleeding tendency result in data set [4] is “demonstrated a bleeding tendency”. In addition, in data set [5], the “Effect on U46619-induced platelet aggregation” value is on record as “can block”. In data set [6], the Kd is 0.3 µM. In data set [7], the “Effect on thrombin-induced platelet aggregation” value was “can block”.
